The test system of experiment [1] is Striga. Put plainly: Field experiment Short Rains 2002: slow release formulations without free herbicide, Striga control. It is filed as in vivo. As for the experimental part: A solid coat of polylvinylpyrollidone (PVP) (avg. MW 90 Kd) was used to bind the various formulations to the maize seed. 90 mg of PVP mixed with 2.9 ml water was combined with various amounts of the slow release formulations described in Example 1 or with 36 mg dry imazapyr (acid form) or sodium pyrithiobac powder mixed thoroughly together and then with 144 maize seeds (to give a imazapyr coating of 0.25 mg a.e. imazapyr seed^−1). This is the equivalent of 13.25 g a.e. ha^−1, respectively, when planted in the field at 53,300 seeds ha^−1. The treated seeds were then planted in the field within 2 days of coating. All field experiments were conducted at the National Sugar Research Center (NRSC) of the Kenya Agricultural Research Institute (KARI) near Kibos (0°04′S, 34°48′, elevation 1214 m) in western Kenya. The soil is classified as a vetro-eutic planosol according to the FAO/UNESCO (1974) system. The fields used had previously been cropped to maize that was heavily infested with Striga, which matured and seeded the area. The experiments were carried out during October-January […]. Seasonal precipitation during that season was 550 mm. […] Maize stand counts were determined six weeks after planting. […] The number of flowering Striga plants and Striga seed capsules at twelve and fourteen weeks; adjusted grain yield to 15% moisture; and total maize shoot dry weight were all measured. […]

Experiment [2] has as its system Striga. As to the kind of experiment: Pot experiments, Kenya: watering regimes and efficacy of slow release formulations on Striga. Format: in vivo. Conditions: pots. How it is done: Formulations were prepared as outlined in Example 3 and applied to the seeds, without adding free imazapyr (as in Example 2) and planted in pots. 63 pots (10,380 cm^3) were set up, each with 8 kg soil (classified as a vetro-eutic planosol according to the FAO/UNESCO (1974) system) so that we had 21 pots per replication. Each pot was inoculated with 3,000 Striga and mixed thoroughly at a depth of 15 cm. The pots were watered and left for one week to allow Striga seeds to “pre-condition” for germination. Two IR-corn seeds were planted in each plot, each treated 0, 0.25, 0.5 acid equivalent mg imazapyr per pot, as the free acid of the herbicide, or in 0, 0.15, 0.3, acid equivalent mg imazapyr per pot DE-52 or Dowex 1 formulations. Each formulation treatment at each rate had three replicates at each simulated rainfall regime. Natural rain measurements were made. Rainfall was supplemented at 19, 28, and 56 mm of water applied twice weekly, less amount of natural rainfall, for three months to simulate seasonal rainfalls of 500, 750 and 1500 mm, respectively. Measurements of Striga emergence were made at biweekly intervals. Late season emergence of Striga was measured at 12 weeks after planting. […] At the medium and highest watering level, there was no control of Striga by the lowest free herbicide rates, whereas the slow release herbicide performed far better (Table 3).

As to `CC(C)C1(C)N=C(c2ncccc2C(=O)O)NC1=O` (centres unmarked) [Imazapyr, imazapyr], the “Striga emergence (m^−2) at 12 weeks” value worked out at 2.1 m^−2 in the experiment with Striga [1] (imazapyr 0.25 mg/seed) and 0.7 m^−2 in the experiment on Striga [1] (imazapyr 0.5 mg/seed). The “Late season Striga emergence 12 weeks (plants/m^2)” value with Striga [2] (High water (1500 mm total), imazapyr 0.25 mg/seed) worked out at 57 plants/m^2; with Striga [2] (High water (1500 mm total), imazapyr 0.5 mg/seed), 11 plants/m^2; in the experiment on Striga [2] (Low water (500 mm total), imazapyr 0.25 mg/seed) it was 16 plants/m^2; in the experiment on Striga [2] (Low water (500 mm total), imazapyr 0.5 mg/seed) it was 3 plants/m^2; in the experiment on Striga [2] (Medium water (750 mm total), imazapyr 0.25 mg/seed), 33 plants/m^2; in the experiment with Striga [2] (Medium water (750 mm total), imazapyr 0.5 mg/seed), 7 plants/m^2.

The values are drawn from patent publication US20050181952A1, “Slow-release agrochemicals dispenser and method of use” (priority 2002, published 2005).
